{
  "source": "patent US6977253B2",
  "about": "“Methods for the treatment of bipolar disorder using carbamazepine” (Shire Pharmaceutical Development Inc., priority 2003, dated 2005)",
  "origin": "cited, not measured here",
  "test_system": "acute mania",
  "details": "controlled carbamazepine monotherapy trials in acute mania; McElroy and Keck 2000",
  "data": [
    {"smiles": "NC(=O)N1c2ccccc2C=Cc2ccccc21", "note": "[carbamazepine, 5-carbamoyl-5H-dibenz(b,f)azepine]", "values": [
      {"measurement": "Pooled response rate", "value": 52, "unit": "%"}
    ]}
  ]
}
